From US5696151A, “Compounds useful for the inhibition of the replication of HIV-1 and HIV-1 mutants” (priority 1995, dated 1997)
Values after ≈ are worked out from the molar mass of the structure shown.

Experiments:
Format in all cases: cell-based
[1] = test system: HIV-1/181-Cys; experiment: Inhibition of HIV-1 induced syncytium formation in CEM cells, RT mutant 181-Cys; settings: Human immunodeficiency virus 1, CCRF-CEM, 96 h, Table 2B, day 4, averages of 2 to 3 independent experiments, read-out: Antiviral Activity of Comparative Compounds EC50, 181-Cys
Excerpt: (§1) CEM cells were obtained from the American Tissue Cell Culture Collection (Rockville, Md.). HIV-1(IIIB) was originally obtained from the culture supernatant of persistently HIV-1-infected H9 cells and was provided by R. C. Gallo and M. Popovic (National Cancer Institute, National Institutes of Health, Bethesda, Md.). […] 67: 5353-5359 (1993); HIV-1/Lys-138 ("Lys-138") was selected for resistance against TSAO-m^3T as described in Balzarini et al, Virology 192: 246-253 (1993) and Balzarini et al, Proc. Nat. Acad. Sci. USA 90: 6952-6956 (1993); HIV-1/181-Cys ("181-Cys") was selected for resistance against pyridinone L-697,661 as described in Balzarini et al, Virology 192: 246-253 (1993); and HIV-1/188-His ("188-His") was selected for resistance against HEPT as described in Balzarini et al, Mol. Pharmocol. 44: 694-701 (1993). 188-His was then further converted to HIV-1/188-Leu "188-Leu") upon further passage in cell culture in the absence of the HEPT.
(§2) CEM cells were suspended at ≈300,000 cells per ml of culture medium and infected with approximately 100 CCID50 (CCID50 being the 50% cell culture infective dose) of HIV-1(IIIB) or one of the HIV-1 RT mutant strains described above. Then 100 μl of the infected cell suspensions was added to 200 μl microtiter plate wells containing 100 μl of appropriate serial (5-fold) dilutions of the test compounds. The inhibitory effect of the test compounds on HIV-1 induced syncytium formation in CEM cells was examined microscopically on day 4 post infection.

[2] = in vitro; settings: human, cem cells, CC50 (50% cytostatic concentration), Table 2B; CEM cell proliferation; averages of 2 to 3 independent experiments
Excerpt: as §1
^b 50% cytostatic concentration (i.e., compound concentration require
to inhibit CEM cell proliferation by 50%)

[3] = test system: HIV-1/100-Ile; experiment: Inhibition of HIV-1 induced syncytium formation in CEM cells, RT mutant 100-Ile; settings: Human immunodeficiency virus 1, CCRF-CEM, 96 h, Table 2B, day 4, averages of 2 to 3 independent experiments, read-out: Antiviral Activity of Comparative Compounds EC50, 100-Ile
Excerpt: as §1, §2

[4] = test system: HIV-1(IIIB); experiment: Inhibition of HIV-1 induced syncytium formation in CEM cells, wild type; settings: Human immunodeficiency virus 1, IIIB, CCRF-CEM, 96 h, Table 2B, WT = HIV-1(IIIB), day 4, averages of 2 to 3 independent experiments, read-out: Antiviral Activity of Comparative Compounds EC50, WT
Excerpt: as §1, §2

[5] = test system: HIV-1/Lys-138; experiment: Inhibition of HIV-1 induced syncytium formation in CEM cells, RT mutant 138-Lys; settings: Human immunodeficiency virus 1, CCRF-CEM, 96 h, Table 2B, day 4, averages of 2 to 3 independent experiments, read-out: Antiviral Activity of Comparative Compounds EC50, 138-Lys
Excerpt: as §1, §2

[6] = test system: HIV-1/106-Ala; experiment: Inhibition of HIV-1 induced syncytium formation in CEM cells, RT mutant 106-Ala; settings: Human immunodeficiency virus 1, CCRF-CEM, 96 h, Table 2B, day 4, averages of 2 to 3 independent experiments, read-out: Antiviral Activity of Comparative Compounds EC50, 106-Ala
Excerpt: as §1, §2

Compound	EC50 [1] [µg/mL]	CC50 [2] [µg/mL]	EC50 [3] [µg/mL]	EC50 [4] [µg/mL]	EC50 [5] [µg/mL]	EC50 [6] [µg/mL]
Cc1occc1C(=O)Nc1ccc(Cl)c(C(=O)OC(C)C)c1 [Compound 48]	6 (≈ 18.6 µM)	3.8 (≈ 11.8 µM)	6.5 (≈ 20.2 µM)	0.45 (≈ 1.4 µM)	3.5 (≈ 10.9 µM)	6.5 (≈ 20.2 µM)
Cc1occc1C(=S)Nc1ccc(Cl)c(C=NOC2CCCC2)c1 [Compound 113]	0.13 (≈ 0.358 µM)	5.4 (≈ 14.9 µM)	0.27 (≈ 0.744 µM)	0.023 (≈ 0.0634 µM)	0.15 (≈ 0.413 µM)	0.085 (≈ 0.234 µM)
C=CCOc1cc(NC(=S)c2sccc2C)ccc1Cl [Compound 76]	> 1	5.3 (≈ 16.4 µM)	2.7 (≈ 8.34 µM)	0.035 (≈ 0.108 µM)	0.73 (≈ 2.25 µM)	≥ 1
CC(C)C(OC(=O)c1cc(NC(=S)c2cccn2C)ccc1Cl)C(C)C [Compound 100]	0.65 (≈ 1.65 µM)	> 100	4 (≈ 10.2 µM)	0.03 (≈ 0.0763 µM)	0.4 (≈ 1.02 µM)	0.8 (≈ 2.04 µM)
O=C(OC1CCCCC1)c1cc(NC(=S)c2ccccc2F)ccc1Cl [Compound 65]	0.25 (≈ 0.638 µM)	19 (≈ 48.5 µM)	0.3 (≈ 0.766 µM)	0.04 (≈ 0.102 µM)	0.09 (≈ 0.23 µM)	0.26 (≈ 0.663 µM)
CCOC(=O)c1cc(NC(=S)c2ccoc2C)ccc1C [Compound 75]	0.6 (≈ 1.98 µM)	16 (≈ 52.7 µM)	0.9 (≈ 2.97 µM)	0.009 (≈ 0.0297 µM)	0.35 (≈ 1.15 µM)	0.7 (≈ 2.31 µM)
C=CC(C)(C)OC(=O)c1cc(NC(=S)c2ccoc2C)ccc1Cl [Compound 110]	0.5 (≈ 1.37 µM)	25 (≈ 68.7 µM)	4 (≈ 11 µM)	0.04 (≈ 0.11 µM)	0.1 (≈ 0.275 µM)	0.2 (≈ 0.55 µM)
Cc1occc1C(=S)Nc1ccc(Cl)c(COC(C)(C)C)c1 [Compound 53]	0.55 (≈ 1.63 µM)	18 (≈ 53.3 µM)	0.85 (≈ 2.52 µM)	0.03 (≈ 0.0888 µM)	0.08 (≈ 0.237 µM)	0.29 (≈ 0.858 µM)
CC(C)OC(=O)c1cc(NC(=S)c2ccsc2)ccc1Cl [Compound 92]	0.37 (≈ 1.09 µM)	4.3 (≈ 12.7 µM)	0.4 (≈ 1.18 µM)	0.02 (≈ 0.0588 µM)	0.5 (≈ 1.47 µM)	0.75 (≈ 2.21 µM)
Cc1ccsc1C(=S)Nc1ccc(Cl)c(C(=O)OC(C(C)C)C(C)C)c1 [Compound 101]	0.55 (≈ 1.34 µM)	≥ 100	3 (≈ 7.32 µM)	0.045 (≈ 0.11 µM)	0.33 (≈ 0.805 µM)	0.2 (≈ 0.488 µM)
O=C(OC1CCCCC1)c1cc(NC(=S)c2ccsc2)ccc1Cl [Compound 79]	0.08 (≈ 0.211 µM)	4.1 (≈ 10.8 µM)	0.85 (≈ 2.24 µM)	0.03 (≈ 0.079 µM)	0.07 (≈ 0.184 µM)	0.07 (≈ 0.184 µM)
COc1ccccc1C(=S)Nc1ccc(Cl)c(C(=O)OC2CCCC2)c1 [Compound 69]	3.5 (≈ 8.98 µM)	10 (≈ 25.6 µM)	0.65 (≈ 1.67 µM)	0.04 (≈ 0.103 µM)	0.55 (≈ 1.41 µM)	0.65 (≈ 1.67 µM)
C=CCOc1cc(NC(=S)c2sccc2C)ccc1OC [Compound 78]	3.3 (≈ 10.3 µM)	7.1 (≈ 22.2 µM)	5 (≈ 15.7 µM)	0.045 (≈ 0.141 µM)	1.13 (≈ 3.54 µM)	2 (≈ 6.26 µM)
CC(C)OC(=O)c1cc(NC(=S)c2ccco2)ccc1Cl [Compound 86]	5 (≈ 15.4 µM)	7.4 (≈ 22.9 µM)	5 (≈ 15.4 µM)	0.1 (≈ 0.309 µM)	4 (≈ 12.4 µM)	5 (≈ 15.4 µM)
Cc1occc1C(=S)Nc1ccc(Cl)c(C(=O)OC(C)C2CC2)c1 (stereo not drawn) [Compound 55]	0.11 (≈ 0.302 µM)	17 (≈ 46.7 µM)	0.65 (≈ 1.79 µM)	0.009 (≈ 0.0247 µM)	0.18 (≈ 0.495 µM)	0.08 (≈ 0.22 µM)
